Data: patent US20180127374A1, “BE[…] AS OPIOID RECEPTORS MODULATORS” (Purdue Pharma L.P., priority 2012, published 2018)
Where two headings read alike, the source gives them in different places.

Tests used:
κ opioid receptor [1] = biological target: T1, κ opioid receptor (Homo sapiens, UniProt P41145); experiment: κ-opioid receptor [35S]GTPγS functional assay; format: biochemical; parameters: expressed in transfected cells; conditions: for Emax: relative to the effect elicited by U69,593
Description: (§1) Functional [^35S]GTPγS binding assays were conducted as follows. κ opioid receptor membrane solution was prepared by sequentially adding final concentrations of 0.026 μg/μl κ membrane protein (in-house), 10 μg/mL saponin, 3 μM GDP and 0.20 nM [^35S]GTPγS to binding buffer (100 mM NaCl, 10 mM MgCl2, 20 mM HEPES, pH 7.4) on ice. The prepared membrane solution (190 μl/well) was transferred to 96-shallow well polypropylene plates containing 10 μl of 20× concentrated stock solutions of agonist prepared in DMSO. Plates were incubated for 30 min at a temperature of about 25° C. with shaking.
κ GTP EC50 is the concentration of a compound providing 50% of the maximal response for the compound at a κ receptor.
κ GTP Emax (%) is the maximal effect elicited by a compound relative to the effect elicited by U69,593.

μ-opioid receptor [2] = biological target: T2, μ-opioid receptor (Homo sapiens, UniProt P35372); experiment: μ-opioid receptor [35S]GTPγS functional assay; format: biochemical; parameters: purchased Perkin Elmer, Shelton, Conn; conditions: for Emax: relative to the effect elicited by DAMGO
Description: [^35S]GTPγS functional assays were conducted using freshly thawed μ-receptor membranes (Perkin Elmer, Shelton, Conn.). Assay reactions were prepared by sequentially adding the following reagents to binding buffer (100 mM NaCl, 10 mM MgCl2, 20 mM HEPES, pH 7.4) on ice (final concentrations indicated): membrane protein (0.026 mg/mL), saponin ([…]), GDP ([…]) and [^35S]GTPγS (0.20 nM; Perkin Elmer, Shelton, Conn.). The prepared membrane solution (190 μl/well) was transferred to 96-shallow well polypropylene plates containing 10 μI of 20× concentrated stock solutions of the agonist [D-Ala^e, N-methyl-Phe^4 Gly-ol^5]-enkephalin (DAMGO) prepared in dimethyl sulfoxide (DMSO). Plates were incubated for 30 min at about 25° C. with shaking. […] Data were analyzed using the sigmoidal dose-response curve fitting functions in GraphPad PRISM v. 3.0, or an in-house function for non-linear, sigmoidal dose-response curve-fitting.
μ GTP EC50 is the concentration of a compound providing 50% of the maximal response for the compound at a μ-opioid receptor.
μ GTP Emax (%) is the maximal effect elicited by a compound relative to the effect elicited by DAMGO, a standard μ agonist. Generally, the μ GTP Emax (%) value measures the efficacy of a compound to treat or prevent pain or other Conditions.
Target sequence in this assay (P35372 whole entry, species assumed): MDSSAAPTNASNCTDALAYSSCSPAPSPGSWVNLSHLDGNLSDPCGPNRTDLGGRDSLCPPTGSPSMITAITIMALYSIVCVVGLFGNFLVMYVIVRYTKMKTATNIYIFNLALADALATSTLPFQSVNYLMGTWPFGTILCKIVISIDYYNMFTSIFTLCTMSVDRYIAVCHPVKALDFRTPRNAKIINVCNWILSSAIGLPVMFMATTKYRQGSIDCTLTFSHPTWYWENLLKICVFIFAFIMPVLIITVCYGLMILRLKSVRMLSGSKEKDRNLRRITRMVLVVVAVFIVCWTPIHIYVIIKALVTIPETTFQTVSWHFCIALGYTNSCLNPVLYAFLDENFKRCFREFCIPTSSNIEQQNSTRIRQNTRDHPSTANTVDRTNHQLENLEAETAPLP

μ-opioid receptor [3] = biological target: T2, μ-opioid receptor; experiment: μ-opioid receptor radioligand dose-displacement binding assay
Description: Radioligand dose-displacement binding assays for μ-opioid receptors used 0.3 nM [^3H]-diprenorphine (Perkin Elmer, Shelton, Conn.), with […] membrane protein/well in a final volume of […] binding buffer (10 mM MgCl2, 1 mM EDTA, 5% DMSO, 50 mM HEPES, pH 7.4). Reactions were carried out in the absence or presence of increasing concentrations of unlabeled naloxone. All reactions were conducted in 96-deep well polypropylene plates for 2 hr at room temperature. […] The data were analyzed using the one-site competition curve fitting functions in GraphPad PRISM™ v. 3.0 or higher (San Diego, Calif.), or an in-house function for one-site competition curve-fitting.
Target sequence in this assay (P35372 whole entry): as the sequence (P35372 whole entry, species assumed) above

δ opioid receptor [4] = biological target: T3, δ opioid receptor (Homo sapiens, UniProt P41143); experiment: δ-opioid receptor [35S]GTPγS functional assay; format: biochemical; parameters: purchased Perkin Elmer, Shelton, Conn; conditions: for Emax: relative to the effect elicited by met-enkephalin; for EC50: δ membrane protein
T3 sequence (P41143 whole entry): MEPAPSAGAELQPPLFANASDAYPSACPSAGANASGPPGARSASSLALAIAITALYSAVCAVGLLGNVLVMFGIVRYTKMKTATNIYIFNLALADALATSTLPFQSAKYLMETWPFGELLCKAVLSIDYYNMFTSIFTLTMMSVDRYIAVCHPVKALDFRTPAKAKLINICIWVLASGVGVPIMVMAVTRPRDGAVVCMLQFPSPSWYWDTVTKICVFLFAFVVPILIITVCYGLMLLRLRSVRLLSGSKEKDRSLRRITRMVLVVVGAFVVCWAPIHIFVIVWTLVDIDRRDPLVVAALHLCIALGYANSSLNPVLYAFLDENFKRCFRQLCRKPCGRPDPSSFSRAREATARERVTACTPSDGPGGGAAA
Description: as §1, with “δ” for “κ”, “(Perkin Elmer, Shelton, Conn.),” for “(in-house),”, “[…]” for “10 μl”
δ GTP EC50 is the concentration of a compound providing 50% of the maximal response for the compound at a δ receptor.
δ GTP Emax (%) is the maximal effect elicited by a compound relative to the effect elicited by met-enkephalin. […] In another embodiment, the Compounds of the Invention will have a δ GTP Emax (%) of about 100% or greater.

δ opioid receptor [5] = biological target: T3, δ opioid receptor; experiment: δ-opioid receptor radioligand dose-displacement binding assay
Description: δ-opioid Receptor Binding Assay Procedures were conducted as follows. Radioligand dose-displacement assays used 0.3 nM [^3H]-Naltrindole (Perkin Elmer, Shelton, Conn.; 33.0 Ci/mmole) with 5 μg membrane protein (Perkin Elmer, Shelton, Conn.) in a final volume of 500 μl binding buffer (5 mM MgCl2, 5% DMSO, 50 mM Trizma base, pH 7.4). Non-specific binding was determined in the presence of 25 μM unlabeled naloxone. All reactions were performed in 96-deep well polypropylene plates for 1 hr at a temperature of about 25° C. Binding reactions were terminated by rapid filtration onto 96-well Unifilter GF/C filter plates (Perkin Elmer, Shelton, Conn.) presoaked in 0.5% polyethylenimine (Sigma). Harvesting was performed using a 96-well tissue harvester (Perkin Elmer, Shelton, Conn.) followed by five filtration washes with 500 μl ice-cold binding buffer. Filter plates were subsequently dried at 50° C. for 1-2 hours. Fifty μl/well scintillation cocktail (Perkin Elmer, Shelton, Conn.) was added and plates were counted in a Packard Top-Count for 1 min/well.

κ opioid receptor [6] = biological target: T1, κ opioid receptor; experiment: κ-opioid receptor radioligand dose displacement binding assay; parameters: expressed in transfected cells; host or cells: HEK-293
Description: Membranes from recombinant HEK-293 cells expressing the human κ opioid receptor (κ) (cloned in house) were prepared by lysing cells in ice cold hypotonic buffer (2.5 mM MgCl2, 50 mM HEPES, pH 7.4) (10 mL/10 cm dish) followed by homogenization with a tissue grinder/Teflon pestle. Membranes were collected by centrifugation at 30,000×g for 15 min at 4° C. and pellets were resuspended in hypotonic buffer to a final concentration of 1-3 mg/mL. Protein concentrations were determined using the BioRad protein assay reagent with bovine serum albumen as standard. Aliquots of κ receptor membranes were stored at […]

[7] = biological target: T4, human opioid receptor-like receptor (ORL-1) (Homo sapiens, UniProt P41146); experiment: ORL-1 receptor radioligand binding assay
T4 construct: host or cells: HEK-293
T4 sequence (P41146 whole entry): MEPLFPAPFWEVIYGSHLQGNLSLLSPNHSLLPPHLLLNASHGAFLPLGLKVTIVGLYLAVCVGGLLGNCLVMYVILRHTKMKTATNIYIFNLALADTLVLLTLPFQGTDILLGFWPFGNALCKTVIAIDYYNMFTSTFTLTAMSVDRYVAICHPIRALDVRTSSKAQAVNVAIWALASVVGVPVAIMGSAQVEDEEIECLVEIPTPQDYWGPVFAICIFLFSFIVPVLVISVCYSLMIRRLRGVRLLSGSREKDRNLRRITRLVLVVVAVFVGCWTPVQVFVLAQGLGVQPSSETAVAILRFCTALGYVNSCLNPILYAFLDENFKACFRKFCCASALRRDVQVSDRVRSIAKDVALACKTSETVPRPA
Description: Membranes from recombinant HEK-293 cells expressing the human opioid receptor-like receptor (ORL-1) (Perkin Elmer, Shelton, Conn.) were prepared by lysing cells in ice-cold hypotonic buffer (2.5 mM MgCl2, 50 mM HEPES, pH 7.4) (10 ml/10 cm dish) followed by homogenization with a tissue grinder/Teflon pestle. Membranes were collected by centrifugation at 30,000×g for 15 min at 4° C. and pellets resuspended in hypotonic buffer to a final concentration of 1-3 mg/ml. Protein concentrations were determined using the BioRad protein assay reagent with bovine serum albumen as standard. Aliquots of the ORL-1 receptor membranes were stored at −80° C.
The data from screening and dose-displacement experiments were analyzed using Microsoft Excel and the curve fitting functions in GraphPad PRISM™, v. 3.0 or higher, respectively, or an in-house function for one-site competition curve-fitting.

[8] = κ membrane protein (in-house), read-out: GTPγS κ EC50
[9] = μ-receptor membranes, read-out: GTPγS μ EC50
[10] = [3H]-diprenorphine displacement, read-out: Ki (nM) Opioid Receptor μ
[11] = [3H]-U69,593 displacement, HEK-293 membranes, read-out: Ki (nM) Opioid Receptor κ
[12] = [3H]-nociceptin displacement, HEK-293 membranes, read-out: Ki (nM) ORL-1

T1 sequence (P41145 whole entry): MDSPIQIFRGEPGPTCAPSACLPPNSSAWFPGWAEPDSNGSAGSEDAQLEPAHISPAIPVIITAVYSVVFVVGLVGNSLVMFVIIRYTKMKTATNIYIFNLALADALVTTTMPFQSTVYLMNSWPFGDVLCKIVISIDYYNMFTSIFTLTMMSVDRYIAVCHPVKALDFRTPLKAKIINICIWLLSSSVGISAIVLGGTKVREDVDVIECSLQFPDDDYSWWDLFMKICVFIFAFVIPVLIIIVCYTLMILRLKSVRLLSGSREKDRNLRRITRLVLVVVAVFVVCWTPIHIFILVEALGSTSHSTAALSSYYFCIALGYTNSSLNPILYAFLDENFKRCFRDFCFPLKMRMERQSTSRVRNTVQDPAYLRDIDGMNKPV

| SMILES | Emax (κ opioid receptor [1]) [%] | EC50 (κ opioid receptor [1]; [8]) [nM] | Emax (μ-opioid receptor [2]) [%] | EC50 (μ-opioid receptor [2]; [9]) [nM] | Ki (μ-opioid receptor [3]; [10]) [nM] | Emax (δ opioid receptor [4]) [%] | EC50 (δ opioid receptor [4]) [nM] | Ki (δ opioid receptor [5]) [nM] | Ki (κ opioid receptor [6]; [11]) [nM] | Ki [7] [nM] | EC50 (κ opioid receptor [1]) [nM] | EC50 (μ-opioid receptor [2]) [nM] | Ki (μ-opioid receptor [3]) [nM] | Ki (κ opioid receptor [6]) [nM] | Ki [7, 12] [nM] |
| --- | --- | --- | --- | --- | --- | --- | --- | --- | --- | --- | --- | --- | --- | --- | --- |
| COc1ccc2c(c1)[C@@]1(CCCc3ccco3)CCN(CC3CC3)C(C2)C1C (stereo in doubt) [Compound 15, (2R,6S,11S)-3-(cyclopropylmethyl)-6-(3-(furan-2-yl)propyl)-8-methoxy-11-methyl-1,2,3,4,5,6-hexahydro-2,6-methanobenzo[d]azocine] | 82.3 | 104 | 34.6 | 303 | 389 ± 90.2 | 67 | 143 | 736 ± 196 | 2.11 ± 0.22 |  |  |  |  |  |  |
| COc1ccc2c(c1)[C@@]1(CCC[C@H](O)CO)CCN(CC3CC3)C(C2)[C@@H]1C [Compound 11, (2S)-5-((6S,11R)-3-(cyclopropylmethyl)-8-methoxy-11-methyl-1,2,3,4,5,6-hexahydro-2,6-methanobenzo[d]azocin-6-yl)pentane-1,2-diol] | 81 |  |  |  |  |  |  | 4980 ± 456 |  | 13100 ± 1060 | 210 | > 20000 | 235 ± 17.3 | 3.23 ± 0.5 |  |
| C[C@H]1[C@H]2Cc3ccc(O)cc3[C@]1(CCOc1cncc(C(=O)O)c1)CCN2CC1CC1 [Compound 16, 5-(2-((2R,6S,11R)-3-(cyclopropylmethyl)-8-hydroxy-11-methyl-1,2,3,4,5,6-hexahydro-2,6-methanobenzo[d]azocin-6-yl)ethoxy)nicotinic acid] | 60.7 | 67.9 | 26 | 8.95 | 6.85 ± 1.48 | 37.8 | 2.48 | 62.5 ± 11 | 12.6 ± 2.11 |  |  |  |  |  |  |
| CC(C)CN1CC[C@@]2(CCCC(N)=O)c3cc(O)ccc3C[C@@H]1[C@@H]2C [Compound 18, 4-((2R,6R,11R)-8-hydroxy-3-isobutyl-11-methyl-1,2,3,4,5,6-hexahydro-2,6-methanobenzo[d]azocin-6-yl)butanamide] | 43 | 7.14 | 25.3 | 9.12 | 19.8 ± 0.68 | 74.3 | 81 | 155 ± 44.7 | 0.51 ± 0.05 |  |  |  |  |  |  |
| COC(=O)[C@H](C)NC(=O)CCC[C@]12CCN(CC3CC3)[C@H](Cc3ccc(O)cc31)[C@@H]2C [Compound 21, (S)-methyl 2-(4-((2R,6R,11R)-3-(cyclopropylmethyl)-8-hydroxy-11-methyl-1,2,3,4,5,6-hexahydro-2,6-methanobenzo[d]azocin-6-yl)butanamido)propanoate] | 67.5 | 9.72 | 36.7 | 5.45 | 5.05 ± 1.34 |  |  | 8.81 ± 0.71 | 0.13 ± 0.02 |  |  |  |  |  | 2430 ± 718 |
| COC(=O)CCC[C@]12CCN(CC3CC3)[C@H](Cc3ccc(O)cc31)[C@@H]2C [Compound 23, methyl 4-((2R,6R,11R)-3-(cyclopropylmethyl)-8-hydroxy-11-methyl-1,2,3,4,5,6-hexahydro-2,6-methanobenzo[d]azocin-6-yl)butanoate] | 57 | 5.19 | 18 | 2.33 | 1.16 ± 0.36 |  |  | 32.6 ± 2.97 | 0.07 ± 0.01 |  |  |  |  |  | 2240 ± 285 |
